The record followed here is PubChem BioAssay (NCI).

Structures are written as SMILES. Where “and” joins values, the source holds several entries; their conditions need not be identical. Equal values may be shown once.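 Cultured in 96-well plates, cells were exposed to test compound for 48 hours across five concentrations. Abbreviation: GI50, concentration required for 50% inhibition of growth. TGI: total growth inhibition.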 Where only a bound is given, the exact number is not on record here.

Among the test systems are OVCAR-5 ovarian; SF-268 CNS; DU-145 prostate; SNB-19 CNS; SK-MEL-5 melanoma; HCC-2998 colon; K-562 leukemia; OVCAR-4 ovarian.
Holding throughout (assay): growth of human tumour cells (NCI), 48 h

Take `OCC1OC(n2cnc3c(N/N=C\c4ccccn4)ncnc32)C(O)C1O` (configuration not stated): the GI50 in the test with OVCAR-5 ovarian is 0.467 µM; in the test with SF-268 CNS, 0.167 µM; in the test with DU-145 prostate it was 0.0389 µM; with SNB-19 CNS, 0.364 µM; in the test on SK-MEL-5 melanoma it was 0.398 µM; in the test on HCC-2998 colon, 0.277 µM. The GI50 in the test with K-562 leukemia is 0.368 µM; in the test on OVCAR-4 ovarian, 0.115 µM. Besides, the TGI was above 100 µM in the test on OVCAR-5 ovarian; 1 µM with SF-268 CNS; 10.1 µM with DU-145 prostate; above 100 µM in the test with SNB-19 CNS; 2.29 µM in the test on SK-MEL-5 melanoma; above 100 µM in the test on HCC-2998 colon. Besides, in the test on K-562 leukemia, the TGI was above 100 µM.
Take `O=C(/C=C/c1cc2ccccc2[nH]c1=O)/C=C/c1cc2ccccc2[nH]c1=O`: the GI50 with OVCAR-5 ovarian is above 49 µM; in the test on SF-268 CNS, 18 µM; in the test with DU-145 prostate, 12.3 µM; in the test with SNB-19 CNS, 21.1 µM; with SK-MEL-5 melanoma it was 23.5 µM; with HCC-2998 colon, 5.28 µM. The GI50 with K-562 leukemia is above 23.1 µM; with OVCAR-4 ovarian it was 19.2 µM. For the same compound, the TGI with OVCAR-5 ovarian is above 100 µM; in the test on SF-268 CNS, 99.7 µM; in the test on DU-145 prostate, above 70.3 µM; in the test on SNB-19 CNS, above 100 µM; in the test with SK-MEL-5 melanoma, above 100 µM; in the test on HCC-2998 colon, 9.01 µM. Moreover, the TGI in the test on K-562 leukemia and in the test on OVCAR-4 ovarian was above 100 µM each time.
On to `N#CC1(C(N)=O)C(c2ccc(Cl)cc2)CC(=O)CC1c1ccc(Cl)cc1` (configuration not stated), for which the GI50 was 16.4 µM with OVCAR-5 ovarian; 18.5 µM in the test on SF-268 CNS; 15.6 µM in the test on DU-145 prostate; 17.7 µM with SNB-19 CNS; 17.4 µM in the test with SK-MEL-5 melanoma; 14.8 µM in the test on HCC-2998 colon. Moreover, the GI50 in the test on K-562 leukemia was 31.4 µM; with OVCAR-4 ovarian it was 17.5 µM. Moreover, the TGI in the test on OVCAR-5 ovarian amounted to 33.1 µM; in the test with SF-268 CNS, 34.3 µM; in the test on DU-145 prostate it was 29 µM; in the test on SNB-19 CNS, 33.5 µM; in the test with SK-MEL-5 melanoma, 31.1 µM; in the test on HCC-2998 colon it was 29.9 µM. The TGI was above 100 µM in the test on K-562 leukemia and 35.6 µM in the test with OVCAR-4 ovarian.
`CCCCCCCCCCCCCCCCCC[n+]1ccc2c(C)c3c(c(C)c2c1)c1cc(O)ccc1n3CC`: the GI50 was 4.38 µM with OVCAR-5 ovarian; 1.95 µM in the test on SF-268 CNS; 1.87 µM in the test with DU-145 prostate; 1.79 µM with SNB-19 CNS; 1.34 µM with SK-MEL-5 melanoma; 2.9 µM with HCC-2998 colon. The figures for the GI50 with K-562 leukemia and with OVCAR-4 ovarian were 1.1 µM and 0.954 µM, respectively. The TGI in the test with OVCAR-5 ovarian came out at 24.8 µM; in the test on SF-268 CNS it was 5.11 µM; with DU-145 prostate it was 5.64 µM; with SNB-19 CNS, 6.36 µM; in the test with SK-MEL-5 melanoma, 2.85 µM; in the test on HCC-2998 colon, 20.6 µM. Also, the TGI was 9.13 µM in the test with K-562 leukemia and 12 µM in the test on OVCAR-4 ovarian.
As to `CN[C@@H](C)C(=O)N[C@H](C(=O)N1CCC[C@H]1C(=O)Nc1sc(-c2ncco2)nc1-c1ccccc1)C1CCCCC1`, the GI50 in the test on OVCAR-5 ovarian was 38 µM; in the test on SF-268 CNS, 99.7 µM; with DU-145 prostate, above 95.8 µM; in the test with SNB-19 CNS it was 30 µM; with SK-MEL-5 melanoma, 9.93 µM; in the test on HCC-2998 colon, 25.7 µM. Besides, the GI50 with K-562 leukemia is 24.7 µM; with OVCAR-4 ovarian, 3.26 µM. The TGI is above 64.6 µM with OVCAR-5 ovarian; above 100 µM in the test on SF-268 CNS; above 100 µM in the test on DU-145 prostate; 98.7 µM in the test with SNB-19 CNS; 24 µM in the test on SK-MEL-5 melanoma; 65.7 µM in the test on HCC-2998 colon. Besides, the TGI in the test on K-562 leukemia was 63.6 µM; in the test with OVCAR-4 ovarian, above 100 µM.
As to `O=C1c2cccnc2C(=O)c2c1c(C(=O)NCCCN1CCCCC1)c1ccccn21`, the GI50 with OVCAR-5 ovarian was 1.85 µM; in the test with SF-268 CNS it was 1.25 µM; with DU-145 prostate, 1.2 µM; in the test on SNB-19 CNS, 1.12 µM; with SK-MEL-5 melanoma, 0.36 µM; in the test on HCC-2998 colon, 0.529 µM. For the same compound, the GI50 was 1.22 µM in the test on K-562 leukemia and 0.31 µM in the test with OVCAR-4 ovarian. Besides, the TGI in the test on OVCAR-5 ovarian was 7.44 µM; in the test with SF-268 CNS, 8.3 µM; with DU-145 prostate, 2.61 µM; in the test on SNB-19 CNS, 2.57 µM; in the test on SK-MEL-5 melanoma, 1.35 µM; in the test with HCC-2998 colon, 2.04 µM. Also, the results for the TGI in the test on K-562 leukemia and in the test with OVCAR-4 ovarian were above 100 µM and 1.32 µM, respectively.
On to `O=c1[nH]c(=O)n(C2CC(O)C(COP(=O)(OCc3ccc([N+](=O)[O-])o3)N(CCCCCl)CC(O)CO)O2)cc1F` (configuration not stated), for which the GI50 with OVCAR-5 ovarian was above 100 µM; in the test with DU-145 prostate, 0.176 µM; in the test on SNB-19 CNS it was above 20.3 µM; in the test with SK-MEL-5 melanoma it was 0.386 µM; in the test on HCC-2998 colon, 0.401 µM; with K-562 leukemia it was 3.14 µM. In addition, the GI50 with OVCAR-4 ovarian was above 100 µM. The TGI was above 100 µM with OVCAR-5 ovarian; above 100 µM in the test with SF-268 CNS; above 34.8 µM in the test with DU-145 prostate; above 100 µM with SNB-19 CNS; 4.49 µM with SK-MEL-5 melanoma; above 100 µM in the test with HCC-2998 colon. Also, the TGI in the test with K-562 leukemia and in the test on OVCAR-4 ovarian was above 100 µM in each case.
As for `C=CC(=O)Nc1cccc(Oc2nc(Nc3ccc(N4CCN(C)CC4)cc3)nc3ccsc23)c1`, the GI50 was 3.61 µM and 8.09 µM with OVCAR-5 ovarian; 3.48 µM and 2.73 µM in the test on SF-268 CNS; 2.41 µM and 2.04 µM in the test on DU-145 prostate; 3.51 µM and 3.35 µM with SNB-19 CNS; 1.64 µM and 1.75 µM with SK-MEL-5 melanoma; 14.8 µM with HCC-2998 colon. For the same compound, the GI50 is 2.03 µM and 2.15 µM in the test on K-562 leukemia; 2.74 µM and 3.23 µM in the test on OVCAR-4 ovarian. The TGI in the test with OVCAR-5 ovarian is > 10 µM and 25.2 µM; with SF-268 CNS, > 10 µM and 12.9 µM; with DU-145 prostate it was > 10 µM and 6.24 µM; in the test on SNB-19 CNS, > 10 µM and 14.1 µM; with SK-MEL-5 melanoma it was 3.05 µM and 3.16 µM; in the test with HCC-2998 colon, > 10 µM and 32.3 µM. For the same compound, the TGI with K-562 leukemia is 4.97 µM and 4.87 µM; in the test on OVCAR-4 ovarian, > 10 µM and 11.4 µM.
For the compound `CN1C(=O)N(C)C2C1NN=c1s/c(=C\c3ccc(C(F)(F)F)cc3)c(=O)n12` (configuration not stated), the GI50 was 3.2 µM in the test on OVCAR-5 ovarian; 10.4 µM in the test with SF-268 CNS; 2.96 µM in the test on DU-145 prostate; 2.62 µM in the test on SNB-19 CNS; 0.594 µM in the test on SK-MEL-5 melanoma; 2.68 µM in the test with HCC-2998 colon. Further, the results for the GI50 in the test on K-562 leukemia and in the test on OVCAR-4 ovarian were 0.431 µM and above 100 µM, respectively. In addition, the TGI is above 100 µM with OVCAR-5 ovarian; above 100 µM in the test on SF-268 CNS; above 100 µM in the test on DU-145 prostate; above 100 µM in the test on SNB-19 CNS; 13.9 µM in the test with SK-MEL-5 melanoma; above 100 µM with HCC-2998 colon. The TGI in the test on K-562 leukemia and in the test with OVCAR-4 ovarian was above 100 µM each time.
